# From patent publication US20110086834A1, “ALKYNYL ALCOHOLS AS KINASE INHIBITORS” (AMGEN INC., priority 2008, published 2011)
# Where two headings read alike, the source gives them in different places.
# Target: T1, NIK (Homo sapiens, UniProt Q99558)
# T1 construct: Both assays utilize a truncated form of NIK containing only the catalytic domain; made in house; host or cells: baculovirus expression system (insect cells implied)
# Assay: homogenous time resolved fluorescence (HTRF) assay for NIK Ki measurement
# Format: biochemical
# [1] = truncated NIK (catalytic domain only), autophosphorylation, 10 nM enzyme, 20, 100, 200 or 500 μM ATP, room temperature, 2 hours, read-out: Ki activity in the homogenous time resolved fluorescence (HTRF) assay for NIK
# T1 sequence (Q99558 400-655 limits assumed): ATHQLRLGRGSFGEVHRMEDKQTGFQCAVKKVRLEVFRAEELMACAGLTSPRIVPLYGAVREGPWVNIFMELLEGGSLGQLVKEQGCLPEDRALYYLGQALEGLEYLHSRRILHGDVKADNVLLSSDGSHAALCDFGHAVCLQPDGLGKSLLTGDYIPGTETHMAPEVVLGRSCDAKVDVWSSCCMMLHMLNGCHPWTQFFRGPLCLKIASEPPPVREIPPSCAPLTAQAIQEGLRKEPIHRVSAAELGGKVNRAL
SMILES,Ki [1] [nM],Ki [nM]
CC(O)(C#Cc1ccc(O[C@H]2CCOC2)c(Nc2ccncc2)c1)c1nccs1 (stereo partly drawn) [Example 169],1000 to 30000,
"Cc1ccc(C#CC(C)(O)c2nccs2)cc1Nc1ccc(C#N)cn1 (stereo not drawn) [Example 170, 6-(5-(3-Hydroxy-3-(thiazol-2-yl)but-1-ynyl)-2-methylphenylamino)nicotinonitrile]",1000 to 30000,
"Cc1ccc(C#CC(C)(O)c2nccs2)cc1Nc1ccncc1 (stereo not drawn) [Example 172, 4-(4-Methyl-3-(pyridin-4-ylamino)phenyl)-2-(thiazol-2-yl)but-3-yn-2-ol]",1000 to 30000,
"CC(O)(C#Cc1cccc(Nc2ccncc2C(F)(F)F)n1)c1nccs1 (stereo not drawn) [Example 174, 2-(thiazol-2-yl)-4-(6-(3-(trifluoromethyl)pyridin-4-ylamino)pyridin-2-yl)but-3-yn-2-ol]",1000 to 30000,
"CC(O)(C#Cc1cccc(N(CCN2CCOCC2)c2ccncn2)n1)c1nccs1 (stereo not drawn) [Example 175, 4-(6-((2-morpholinoethyl)(pyrimidin-4-yl)amino)pyridin-2-yl)-2-(thiazol-2-yl)but-3-yn-2-ol]",1000 to 30000,
"Cc1cc([C@@](C)(O)C#Cc2ccc(F)c(Nc3nc(N)ncc3Cl)c2)no1 [Example 177, (S)-4-(3-(2-amino-5-chloropyrimidin-4-ylamino)-4-fluorophenyl)-2-(5-methylisoxazol-3-yl)but-3-yn-2-ol]",1000 to 30000,
"CN1CCC2(CC1)CN(c1nc(N)ncc1Cl)c1cc(C#CC3(O)CCCC3)ccc12 [Example 185, 1-((1-(2-Amino-5-chloro-4-pyrimidinyl)-1′-methyl-1,2-dihydrospiro[indole-3,4′-piperidin]-6-yl)ethynyl)cyclopentanol]",< 1000,
"CN1CCC2(CC1)CN(c1nc(N)ncc1F)c1cc(C#CC3(O)CCCC3)ccc12 [Example 186, 1-((1-(2-amino-5-fluoropyrimidin-4-yl)-1′-methylspiro[indoline-3,4′-piperidine]-6-yl)ethynyl)cyclopentanol]",< 1000,
"CN1CCC2(CC1)CN(c1nc(N)nc3[nH]cnc13)c1cc(C#CC3(O)CCCC3)ccc12 [Example 187, 1-((1-(2-amino-9H-purin-6-yl)-1′-methylspiro[indoline-3,4′-piperidine]-6-yl)ethynyl)cyclopentanol]",< 1000,
"CN1CCC2(C=C(c3nc(N)ncc3Cl)c3cc(C#CC4(O)CCCC4)ccc32)CC1 [Example 222, 1-((3-(2-Amino-5-chloro-4-pyrimidinyl)-1′-methylspiro[indene-1,4′-piperidin]-5-yl)ethynyl)cyclopentanol]",< 1000,
"COCCOc1cnc(N)nc1-c1c[nH]c2ccc(C#CC(C)(C)O)cc12 [Example 224, 4-(3-(2-Amino-5-(2-methoxyethoxy)-4-pyrimidinyl)-1H-indol-5-yl)-2-methyl-3-butyn-2-ol]",,< 1000
"COCCOc1cnc(N)nc1-c1c[nH]c2ccc(C#CC3(O)CCOCC3)cc12 [Example 226, 4-((3-(2-Amino-5-(2-methoxyethoxy)-4-pyrimidinyl)-1H-indol-5-yl)ethynyl)tetrahydro-2H-pyran-4-ol]",1000 to 30000,
"COc1cnc(N)nc1-c1c[nH]c2ccc(C#CC3(O)CCCC3)cc12 [Example 227, 1-((3-(2-Amino-5-methoxy-4-pyrimidinyl)-1H-indol-5-yl)ethynyl)cyclopentanol]",< 1000,
"COCCOCCOc1cnc(N)nc1-c1c[nH]c2ccc(C#CC3(O)CCCC3)cc12 [Example 228, 1-((3-(2-Amino-5-(2-(2-methoxyethoxy)ethoxy)-4-pyrimidinyl)-1H-indol-5-yl)ethynyl)cyclopentanol]",< 1000,
"COCCOc1cnc(N)nc1-c1c[nH]c2c(F)cc(C#CC3(O)CCCC3)cc12 [Example 229, 1-((3-(2-Amino-5-(2-methoxyethoxy)-4-pyrimidinyl)-7-fluoro-1H-indol-5-yl)ethynyl)cyclopentanol]",< 1000,
"Nc1ncc(OCCN2CCOCC2)c(-c2c[nH]c3ccc(C#CC4(O)CCCC4)cc23)n1 [Example 230, 1-((3-(2-Amino-5-(2-(4-morpholinyl)ethoxy)-4-pyrimidinyl)-1H-indol-5-yl)ethynyl)cyclopentanol]",1000 to 30000,
"Nc1ncc(OCCOCCN2CCOCC2)c(-c2c[nH]c3ccc(C#CC4(O)CCCC4)cc23)n1 [Example 231, 1-((3-(2-Amino-5-(2-(2-(4-morpholinyl)ethoxy)ethoxy)-4-pyrimidinyl)-1H-indol-5-yl)ethynyl)cyclopentanol]",< 1000,

# Next, values leading:
Ki [1] [nM],Ki [nM],SMILES
< 1000,,"CC(O)(C#Cc1ccc(OC2CCOCC2)c(Nc2ncncc2Cl)c1)c1nccs1 (stereo not drawn) [Example 171, 4-(3-(5-Chloropyrimidin-4-ylamino)-4-(tetrahydro-2H-pyran-4-yloxy)phenyl)-2-(thiazol-2-yl)but-3-yn-2-ol]"
< 1000,,"CC(O)(C#Cc1cccc(Nc2ccncn2)n1)c1nccs1 (stereo not drawn) [Example 173, 4-(6-(pyrimidin-4-ylamino)pyridin-2-yl)-2-(thiazol-2-yl)but-3-yn-2-ol]"
< 1000,,"Cc1cc([C@](C)(O)C#Cc2ccc(F)c(Nc3nc(N)ncc3Cl)c2)no1 [Example 176, (R)-4-(3-(2-Amino-5-chloropyrimidin-4-ylamino)-4-fluorophenyl)-2-(5-methylisoxazol-3-yl)but-3-yn-2-ol]"
< 1000,,"CN1CC2(C1)CN(c1nc(N)ncc1Cl)c1cc(C#CC3(O)CCCC3)ccc12 [Example 180, 1-((1′-(2-amino-5-chloropyrimidin-4-yl)-1-methylspiro[azetidine-3,3′-indoline]-6′-yl)ethynyl)cyclopentanol]"
< 1000,,"COCCN1CC2(C1)CN(c1nc(N)ncc1Cl)c1cc(C#C[C@@](C)(O)c3nccs3)ccc12 [Example 183, (2R)-4-(1′-(2-amino-5-chloropyrimidin-4-yl)-1-(2-methoxyethyl)spiro[azetidine-3,3′-indoline]-6′-yl)-2-(thiazol-2-yl)but-3-yn-2-ol]"
< 1000,,"C[C@@](O)(C#Cc1ccc2c(c1)N(c1nc(N)ncc1Cl)CC21CN(CCS(C)(=O)=O)C1)c1nccs1 [Example 184, (R)-4-(1′-(2-amino-5-chloropyrimidin-4-yl)-1-(2-(methylsulfonyl)ethyl)spiro[azetidine-3,3′-indoline]-6′-yl)-2-(thiazol-2-yl)but-3-yn-2-ol]"
< 1000,,"CN1CCC2(C1)CN(c1nc(N)nc3[nH]cnc13)c1cc(C#CC3(O)CCCC3)ccc12 (stereo not drawn) [Example 191, 1-((1-(2-Amino-9H-purin-6-yl)-1′-methyl-1,2-dihydrospiro[indole-3,3′-pyrrolidin]-6-yl)ethynyl)cyclopentanol]"
< 1000,,"Nc1ncc(Cl)c(N2CC3(CCOCC3)c3ccc(C#CC4(O)CCCC4)cc32)n1 [Example 205, 1-((1-(2-Amino-5-chloro-4-pyrimidinyl)-1,2,2′,3′,5′,6′-hexahydrospiro[indole-3,4′-pyran]-6-yl)ethynyl)cyclopentanol]"
< 1000,,"Nc1ncc(F)c(N2CC3(CCOCC3)c3ccc(C#CC4(O)CCCC4)cc32)n1 [Example 206, 1-((1-(2-Amino-5-fluoro-4-pyrimidinyl)-1,2,2′,3′,5′,6′-hexahydrospiro[indole-3,4′-pyran]-6-yl)ethynyl)cyclopentanol]"
< 1000,,"CNc1nc(N2CC3(CCOCC3)c3ccc(C#CC4(O)CCCC4)cc32)c2nc[nH]c2n1 [Example 207, 1-((1-(2-(Methylamino)-9H-purin-6-yl)-1,2,2′,3′,5′,6′-hexahydrospiro[indole-3,4′-pyran]-6-yl)ethynyl)cyclopentanol]"
< 1000,,"Nc1ncc(Cl)c(N2CC3(CS(=O)(=O)C3)c3ccc(C#CC4(O)CCCC4)cc32)n1 [Example 212, 1-((1-(2-Amino-5-chloro-4-pyrimidinyl)-1′,1′-dioxido-1,2-dihydrospiro[indole-3,3′-thietan]-6-yl)ethynyl)cyclopentanol]"
< 1000,,"C[C@@](O)(C#Cc1ccc2c(c1)N(c1nc(N)ncc1Cl)CC21CS(=O)(=O)C1)c1nccs1 [Example 213, (2R)-4-(1-(2-Amino-5-chloro-4-pyrimidinyl)-1′,1′-dioxido-1,2-dihydrospiro[indole-3,3′-thietan]-6-yl)-2-(1,3-thiazol-2-yl)-3-butyn-2-ol]"
< 1000,,"CC(C)(O)C#Cc1ccc2c(c1)N(c1nc(N)ncc1Cl)CC21CCS(=O)(=O)CC1 [Example 217, 4-(1-(2-Amino-5-chloro-4-pyrimidinyl)-1′,1′-dioxido-1,2,2′,3′,5′,6′-hexahydrospiro[indole-3,4′-thiopyran]-6-yl)-2-methyl-3-butyn-2-ol]"
< 1000,,"C[C@@](O)(C#Cc1ccc2c(c1)N(c1nc(N)ncc1Cl)CC21CCS(=O)(=O)CC1)c1nccs1 [Example 218, (2R)-4-(1-(2-Amino-5-chloro-4-pyrimidinyl)-1′,1′-dioxido-1,2,2′,3′,5′,6′-hexahydrospiro[indole-3,4′-thiopyran]-6-yl)-2-(1,3-thiazol-2-yl)-3-butyn-2-ol]"
< 1000,,"Nc1ncc(Cl)c(C2=CC3(CCOCC3)c3ccc(C#CC4(O)CCCC4)cc32)n1 [Example 219, 1-((3-(2-Amino-5-chloro-4-pyrimidinyl)-2′,3′,5′,6′-tetrahydrospiro[indene-1,4′-pyran]-5-yl)ethynyl)cyclopentanol]"
< 1000,,"Nc1nccc(C2=CC3(CCOCC3)c3ccc(C#CC4(O)CCCC4)cc32)n1 [Example 220, 1-((3-(2-Amino-4-pyrimidinyl)-2′,3′,5′,6′-tetrahydrospiro[indene-1,4′-pyran]-5-yl)ethynyl)cyclopentanol]"
< 1000,,"C[C@@](O)(C#Cc1ccc2c(c1)C(c1nc(N)ncc1Cl)=CC21CCOCC1)c1nccs1 [Example 221, (2R)-4-(3-(2-Amino-5-chloro-4-pyrimidinyl)-2′,3′,5′,6′-tetrahydrospiro[indene-1,4′-pyran]-5-yl)-2-(1,3-thiazol-2-yl)-3-butyn-2-ol]"
< 1000,,"COCCOc1cnc(N)nc1-c1c[nH]c2ccc(C#CC3(O)CCCC3)cc12 [Example 223, 1-((3-(2-Amino-5-(2-methoxyethoxy)-4-pyrimidinyl)-1H-indol-5-yl)ethynyl)cyclopentanol]"
< 1000,,"COCCOc1cnc(N)nc1-c1c[nH]c2ccc(C#CC3(O)CCC3)cc12 [Example 225, 1-((3-(2-Amino-5-(2-methoxyethoxy)-4-pyrimidinyl)-1H-indol-5-yl)ethynyl)cyclobutanol]"
